ChEMBL document CHEMBL2203066 (J Med Chem, 2012)
pEC50, pIC50: −log10 of the molar value. Activity calls are given as the source filed them. No cut-off for these calls is given here.

Assays:
Mus musculus [1] = test: Acute toxicity in CD1 mouse assessed as body jerks at 300 to 2000 mg/kg, ip measured within 2 days; assay type: organism-based; parameters: dose 300-2000 mg/kg, route intraperitoneal; conditions: in vivo, 48 h
Influenza A virus [2] = test: Antiviral activity against Influenza A virus A/WSN/1933(H1N1) infected in BALB/c mouse assessed as protection against virus-induced mortality at 1 mg/kg/day, po bid for 5 days followed by viral infection at 4 hrs post first dose measured after 2 to 14 days; assay type: functional, organism-based
Influenza A virus [3] = test: Antiviral activity against Influenza A virus A/Brisbane/10/2007(H3N2) infected in MDCK cells assessed as protection against virus-induced cytopathic effect after 48 to 72 hrs by CellTiter 96 aqueous assay; assay type: functional, organism-based
Influenza A virus [4] = test: Antiviral activity against Influenza A virus A/WSN/1933(H1N1) infected in BALB/c mouse assessed as protection against virus-induced mortality at 10 mg/kg/day, po bid for 5 days followed by viral infection at 4 hrs post first dose measured 8 days post infection; assay type: functional, organism-based
Influenza A virus [5] = test: Antiviral activity against Influenza A virus A/WSN/1933(H1N1) infected in BALB/c mouse assessed as protection against virus-induced body weight loss at 10 mg/kg/day, po bid for 5 days followed by viral infection at 4 hrs post first dose measured 8 days post infection; assay type: functional, organism-based
Mus musculus [6] = test: Acute toxicity in CD1 mouse assessed as piloerection at 300 to 2000 mg/kg, ip measured within 2 days; assay type: organism-based; parameters: dose 300-2000 mg/kg, route intraperitoneal; conditions: in vivo, 48 h
Mus musculus [7] = test: Acute toxicity in CD1 mouse assessed as tremor at 300 to 2000 mg/kg, ip measured within 2 days; assay type: organism-based; parameters: dose 300-2000 mg/kg, route intraperitoneal; conditions: in vivo, 48 h
Influenza A virus [8] = test: Antiviral activity against Influenza A virus A/WSN/1933(H1N1) infected in BALB/c mouse assessed as partial protection against virus-induced body weight loss at 0.1 mg/kg/day, po bid for 5 days followed by viral infection at 4 hrs post first dose measured 2 to 14 days post infection; assay type: functional, organism-based
Mus musculus [9] = test: Acute toxicity in CD1 mouse assessed as hypoactivity at 300 to 2000 mg/kg, ip measured within 2 days; assay type: organism-based; parameters: dose 300-2000 mg/kg, route intraperitoneal; conditions: in vivo, 48 h
Influenza A virus [10] = test: Antiviral activity against Influenza A virus A/WSN/1933(H1N1) infected in BALB/c mouse assessed as partial protection against virus-induced mortality at 0.1 mg/kg/day, po bid for 5 days followed by viral infection at 4 hrs post first dose measured 2 to 14 days post infection; assay type: functional, organism-based
Mus musculus [11] = test: Acute toxicity in CD1 mouse assessed as mortality at 2000 mg/kg, ip; assay type: organism-based; parameters: dose 2000 mg/kg, route intraperitoneal; conditions: in vivo
MDCK = test: Cytotoxicity against MDCK cells at 100 uM; assay type: cell-based, Canis lupus familiaris; conditions: dog
Mus musculus [12] = test: Acute toxicity in CD1 mouse assessed as lesions at 300 to 2000 mg/kg, ip after 15 days by necropsy analysis; assay type: organism-based; parameters: dose 300-2000 mg/kg, route intraperitoneal; conditions: in vivo, 360 h
Plasma = test: Plasma concentration in Sprague-Dawley rat at 1 mg/kg, po; assay type: ADME, organism-based; parameters: dose 1 mg/kg, route oral; conditions: in vivo, BLD = below limit of detection
Mus musculus [13] = test: Acute toxicity in CD1 mouse assessed as hunched posture at 300 to 2000 mg/kg, ip measured within 2 days; assay type: organism-based; parameters: dose 300-2000 mg/kg, route intraperitoneal; conditions: in vivo, 48 h
Mus musculus [14] = test: Acute toxicity in CD1 mouse assessed as convulsion at 300 to 2000 mg/kg, ip measured within 2 days; assay type: organism-based; parameters: dose 300-2000 mg/kg, route intraperitoneal; conditions: in vivo, 48 h
Liver = test: Metabolic stability in dog liver microsomes at 3 uM; assay type: ADME, Canis lupus familiaris, Microsome
[15] = Metabolic stability in dog whole blood at 5 uM; assay type: ADME, tissue-based, Canis lupus familiaris
Influenza A virus [16] = test: Antiviral activity against Influenza A virus A/CA/07/2009(H1N1) infected in BALB/c mouse assessed as protection against virus-induced mortality at 1 mg/kg/day, po bid for 5 days followed by viral infection at 4 hrs post first dose measured on day 20 to day 21; assay type: functional, organism-based; conditions: A/California/07/2009(H1N1)
Influenza B virus [17] = test: Antiviral activity against Influenza B virus B/Florida/4/2006 infected in MDCK cells assessed as protection against virus-induced cytopathic effect after 48 to 72 hrs by CellTiter 96 aqueous assay; assay type: functional, cell-based; conditions: B/Florida/4/2006, MDCK
Blood [18] = test: Metabolic stability in rat whole blood at 5 uM; assay type: ADME, tissue-based
Liver microsomes [19] = test: Metabolic stability in rat liver microsomes at 3 uM; assay type: ADME, Microsome
Influenza A virus [20] = test: Antiviral activity against Influenza A virus A/CA/07/2009(H1N1) infected in BALB/c mouse assessed as protection against virus-induced body weight loss at 10 mg/kg/day, po bid for 5 days followed by viral infection at 4 hrs post first dose measured 2 to 14 days post infection; assay type: functional, organism-based; conditions: A/California/07/2009(H1N1)
Influenza A virus [21] = test: Antiviral activity against Influenza A virus A/CA/07/2009(H1N1) infected in BALB/c mouse assessed as protection against virus-induced body weight loss at 1 mg/kg/day, po bid for 5 days followed by viral infection at 4 hrs post first dose measured 20 days post infection; assay type: functional, organism-based; conditions: A/California/07/2009(H1N1)
Neuraminidase = Neuraminidase (Influenza A virus, UniProt B4URF0)
Influenza A virus [22] = test: Antiviral activity against Influenza A virus A/CA/07/2009(H1N1) infected in BALB/c mouse assessed as protection against virus-induced body weight loss at 0.1 mg/kg/day, po bid for 5 days followed by viral infection at 4 hrs post first dose measured after 2 to 14 days; assay type: functional, organism-based; conditions: A/California/07/2009(H1N1)
Liver microsomes [23] = test: Metabolic stability in human liver microsomes at 3 uM; assay type: ADME, Microsome
Influenza A virus [24] = test: Antiviral activity against Influenza A virus A/CA/07/2009(H1N1) infected in BALB/c mouse assessed as protection against virus-induced mortality at 0.1 mg/kg/day, po bid for 5 days followed by viral infection at 4 hrs post first dose measured after 2 to 14 days; assay type: functional, organism-based; conditions: A/California/07/2009(H1N1)
Blood [25] = test: Metabolic stability in human whole blood at 5 uM; assay type: ADME, tissue-based
Influenza B virus [26] = test: Antiviral activity against Influenza B virus B/Sichuan/379/99 infected in MDCK cells assessed as protection against virus-induced cytopathic effect after 48 to 72 hrs by CellTiter 96 aqueous assay; assay type: functional, organism-based; conditions: B/Sichuan/379/99, MDCK
[27] = Drug excretion in Sprague-Dawley rat urine at 5 mg/kg, po; assay type: ADME, organism-based; parameters: dose 5 mg/kg, route oral; conditions: read-out: Drug excretion
[28] = Drug excretion in Sprague-Dawley rat feces at 5 mg/kg, po; assay type: ADME, organism-based; parameters: dose 5 mg/kg, route oral; conditions: faeces, read-out: Drug excretion
in vivo = conditions: Sprague-Dawley, rat, po, 10 mg/kg
[29] = Drug metabolism in human liver microsomes at 3 uM after 1 hr; assay type: ADME, Microsome; conditions: read-out: Drug metabolism
[30] = Drug metabolism in rat liver microsomes at 3 uM after 1 hr; assay type: ADME, Microsome; conditions: read-out: Drug metabolism
[31] = Drug metabolism in dog liver microsomes at 3 uM after 1 hr; assay type: ADME, Canis lupus familiaris, Microsome; conditions: read-out: Drug metabolism
Mus musculus [32] = test: Acute toxicity in CD1 mouse assessed as hunched posture at 300 to 1000 mg/kg, iv measured within 2 days; assay type: organism-based; parameters: dose 300-1000 mg/kg, route intravenous; conditions: in vivo, 48 h
Mus musculus [33] = test: Acute toxicity in CD1 mouse assessed as tremor at 300 to 1000 mg/kg, iv measured within 2 days; assay type: organism-based; parameters: dose 300-1000 mg/kg, route intravenous; conditions: in vivo, 48 h
Mus musculus [34] = test: Acute toxicity in CD1 mouse assessed as hypoactivity at 300 to 1000 mg/kg, iv measured within 2 days; assay type: organism-based; parameters: dose 300-1000 mg/kg, route intravenous; conditions: in vivo, 48 h
Mus musculus [35] = test: Acute toxicity in CD1 mouse assessed as body jerks at 300 to 1000 mg/kg, iv measured within 2 days; assay type: organism-based; parameters: dose 300-1000 mg/kg, route intravenous; conditions: in vivo, 48 h
Mus musculus [36] = test: Acute toxicity in CD1 mouse assessed as mortality at 750 mg/kg, iv; assay type: organism-based; parameters: dose 750 mg/kg, route intravenous; conditions: in vivo
Mus musculus [37] = test: Acute toxicity in CD1 mouse assessed as lesions at 300 to 1000 mg/kg, iv after 15 days by necropsy analysis; assay type: organism-based; parameters: dose 300-1000 mg/kg, route intravenous; conditions: in vivo, 360 h
Mus musculus [38] = test: Acute toxicity in CD1 mouse assessed as piloerection at 300 to 1000 mg/kg, iv measured within 2 days; assay type: organism-based; parameters: dose 300-1000 mg/kg, route intravenous; conditions: in vivo, 48 h
Mus musculus [39] = test: Acute toxicity in CD1 mouse assessed as convulsion at 300 to 1000 mg/kg, iv measured within 2 days; assay type: organism-based; parameters: dose 300-1000 mg/kg, route intravenous; conditions: in vivo, 48 h

Sequence of Neuraminidase (B4URF0 whole entry): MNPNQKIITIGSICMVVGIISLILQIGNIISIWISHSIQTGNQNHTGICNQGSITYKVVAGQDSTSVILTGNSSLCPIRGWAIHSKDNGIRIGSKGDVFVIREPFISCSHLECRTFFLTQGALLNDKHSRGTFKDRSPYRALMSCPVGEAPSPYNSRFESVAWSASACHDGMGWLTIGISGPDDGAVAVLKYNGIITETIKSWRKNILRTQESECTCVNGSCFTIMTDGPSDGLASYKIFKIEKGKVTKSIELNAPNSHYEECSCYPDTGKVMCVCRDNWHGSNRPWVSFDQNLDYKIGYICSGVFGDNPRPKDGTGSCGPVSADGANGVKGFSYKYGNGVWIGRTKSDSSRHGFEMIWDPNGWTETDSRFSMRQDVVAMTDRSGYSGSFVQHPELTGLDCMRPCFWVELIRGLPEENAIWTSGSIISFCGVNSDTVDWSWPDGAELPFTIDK

CCOP(=O)(O)C1=C[C@@H](OC(CC)CC)[C@H](NC(C)=O)[C@@H](N)C1 [TAMIPHOSPHOR MONOETHYL ESTER]
Activity (Mus musculus [1]): Non-toxic
Activity (Influenza A virus [2]): Active
pEC50 (Influenza A virus [3]): < 5.00
Activity (Influenza A virus [4]): Active
Activity (Influenza A virus [5]): Active
Activity (Mus musculus [6]): Non-toxic
Activity (Mus musculus [7]): Non-toxic
Activity (Influenza A virus [8]): Active
Activity (Mus musculus [9]): Non-toxic
Activity (Influenza A virus [10]): Active
Activity (Mus musculus [11]): Toxic
Activity (MDCK): Non-toxic
Activity (Mus musculus [12]): Non-toxic
Cp (Plasma): BLD
Activity (Mus musculus [13]): Non-toxic
Activity (Mus musculus [14]): Non-toxic

CCC(CC)O[C@@H]1C=C(P(=O)(O)O)C[C@H](NC(=N)N)[C@H]1NC(C)=O
Stability (Liver): Unstable
Activity (Influenza A virus [2]): Active
pEC50 (Influenza A virus [3]): < 5.00
Stability [15]: Unstable
Activity (Influenza A virus [16]): inactive
pEC50 (Influenza B virus [17]): < 5.00
Stability (Blood [18]): Unstable
Stability (Liver microsomes [19]): Unstable
Activity (Influenza A virus [4]): Active
Activity (Influenza A virus [5]): Active
Activity (Influenza A virus [20]): Active
Activity (Influenza A virus [21]): inactive
Activity (MDCK): Non-toxic
pIC50 (Neuraminidase): 9.52
Activity (Influenza A virus [22]): inactive
Stability (Liver microsomes [23]): Unstable
Activity (Influenza A virus [24]): inactive
Stability (Blood [25]): Unstable
pEC50 (Influenza B virus [26]): < 5.00
dose excreted [27]: 1.5%
dose excreted [28]: 43.2%

CC(=O)N[C@H]1[C@H]([C@H](O)[C@H](O)CO)OC(C(=O)O)=C[C@@H]1N=C(N)N [ZANAMIVIR]
bioavailability (in vivo): 3.7%

CCOP(=O)(O)C1=C[C@@H](OC(CC)CC)[C@H](NC(C)=O)[C@@H](NC(=N)N)C1 [TAMIPHOSPHOR MONOETHYL ESTER]
Activity (Influenza A virus [2]): Active
Activity (Influenza A virus [16]): inactive
Activity (Influenza A virus [4]): Active
Activity (Influenza A virus [5]): Active
Activity (Influenza A virus [20]): Active
Activity (Influenza A virus [8]): Active
Activity (Influenza A virus [21]): inactive
Activity (Influenza A virus [10]): Active
Activity (Influenza A virus [22]): inactive
Activity (Influenza A virus [24]): inactive

CCOP(=O)(OCC)C1=C[C@@H](OC(CC)CC)[C@H](NC(C)=O)[C@@H](N)C1
Activity (Influenza A virus [2]): Active
Activity (Influenza A virus [4]): inactive
Activity (Influenza A virus [5]): inactive

Cc1ncc2n1-c1ccc(Cl)cc1C(c1ccccc1F)=NC2 [MIDAZOLAM]
metabolised at 1 h, 3 µM [29]: 65%
metabolised at 1 h, 3 µM [30]: 65%
metabolised at 1 h, 3 µM [31]: 65%

CCC(CC)O[C@@H]1C=C(P(=O)(O)O)C[C@H](N)[C@H]1NC(C)=O [TAMIPHOSPHOR]
Activity (Mus musculus [32]): Non-toxic
Activity (Influenza A virus [2]): Active
pEC50 (Influenza A virus [3]): < 5.00
Activity (Mus musculus [33]): Non-toxic
Activity (Influenza A virus [4]): Active
Activity (Mus musculus [34]): Non-toxic
Activity (Mus musculus [35]): Non-toxic
Activity (Influenza A virus [5]): Active
Activity (Mus musculus [36]): Toxic
Activity (Mus musculus [37]): Non-toxic
Activity (MDCK): Non-toxic
Activity (Mus musculus [38]): Non-toxic
pIC50 (Neuraminidase): 8.74
Activity (Mus musculus [39]): Non-toxic

C[C@]12CC[C@H]3[C@@H](CCC4=CC(=O)CC[C@@]43C)[C@@H]1CC[C@@H]2O [TESTOSTERONE]
metabolised at 1 h, 3 µM [29]: 65%
metabolised at 1 h, 3 µM [30]: 65%
metabolised at 1 h, 3 µM [31]: 65%
